{"source": "patent US5888494A", "about": "“Film-forming compositions of antihyperalgesic opiates and method of treating hyperalgesic and pruritic conditions therewith” (priority 1997, dated 1999)", "key": {"[1]": {"tested_on": "Compound 48/80-induced scratching", "test": "mouse scratch model: antagonism of Compound 48/80-induced scratching (anti-pruritic activity)", "type": "in vivo, male Swiss albino mice", "conditions": "sc, 0.5 h, Compound 48/80 challenge, 30 min observation", "experimental": "Testing was performed in a mouse scratch model under blind conditions.\nGroups of 8-10 male Swiss albino mice (Hilltop Lab Animals, Inc., Scottsdale, Pa.), weighing […], were used in the testing. They were housed under controlled temperature of 23°-25° C. Food and water were freely available. Before the experiments, the mice were weighted, put into individual boxes and allowed to acclimate for 30 min.\nVehicle used to dissolve the test compounds: 20% w/w cremafor EL.\nThe compounds to be tested for anti-pruritic activity were dissolved in the vehicle of 20% w/w cremafor EL.\n100 μl of the vehicle (3-5 doses, n=8-10) was injected s.c. into the back of the neck of mice 20 min. before challenging them with 100 μl of Compound 48/80 (2 mg/ml; […]) injected s.c. into the back of the neck.\nTo each mouse of a group of 8-10 mice previously subjected to the standard challenge various doses of the compounds, to be tested for anti-pruritic activity, were administered s.c. into the back of the neck.\nFor each group of 8-10 mice, the mean values for scratching were no to relative % antagonism of scratching and then plotted vs. dose of test compounds. Interval estimates of mean A50 were determined by nonlinear regression analysis (Kaleida Graph) and mean % inhibition of scratching was calculated."}, "[2]": {"conditions": "in vivo; hydrochloride; cited from earlier work"}, "[3]": {"conditions": "in vivo, iv; cited from earlier work"}}, "note": "Counter-ions that a name gives are not always drawn.", "data": [{"smiles": "O=C(O)C1(c2ccccc2)CCN(CCC(c2ccccc2)(c2ccccc2)c2ccccn2)CC1", "note": "[(1), 1-[3,3-diphenyl-3-(2-pyridyl)propyl]-4-phenyl-4-piperidinecarboxylic acid hydrochloride]", "values": [{"measurement": "inhibition at 2.5 mg/kg", "setting": "[1]", "result": 32, "unit": "%"}, {"measurement": "inhibition at 5 mg/kg", "setting": "[1]", "result": 65, "unit": "%"}, {"measurement": "inhibition at 10 mg/kg", "setting": "[1]; 10.0 mg/kg", "result": 83, "unit": "%"}]}, {"smiles": "OC1(Cc2ccc(Cl)cc2)CCN(CCC(c2ccccc2)(c2ccccc2)c2ccccc2)CC1", "note": "[(2), 1-(3,3,3-triphenylpropyl)-4-hydroxy-4-p-chlorobenzylpiperidine]", "values": [{"measurement": "inhibition at 1 mg/kg", "setting": "[1]; 1.0 mg/kg", "result": 35, "unit": "%"}, {"measurement": "inhibition at 2.5 mg/kg", "setting": "[1]", "result": 68, "unit": "%"}, {"measurement": "inhibition at 5 mg/kg", "setting": "[1]", "result": 94, "unit": "%"}]}, {"smiles": "CN(C)C(=O)C(CCN1CCC(O)(c2ccc(Cl)cc2)CC1)(c1ccccc1)c1ccccc1", "note": "[Loperamide HCl, 4-(p-chlorophenyl)-4-hydroxy-N-N-dimethyl-α,α-diphenyl-1-piperidinebutyramide hydrochloride]", "values": [{"measurement": "CNS effects", "setting": "[2]", "result": "completely free of the undesirable CNS effects"}]}, {"smiles": "CN1CC[C@]23c4c5ccc(O)c4O[C@H]2[C@@H](O)C=C[C@H]3[C@H]1C5", "note": "[morphine]", "values": [{"measurement": "general itching, incidence", "setting": "[3]", "result": "about 1 % of patients"}]}]}
